The values that follow come from publication PMC6920776, “Exploring Biological Activity of 4-Oxo-4H-furo[2,3-h]chromene Derivatives as Potential Multi-Target-Directed Ligands Inhibiting Cholinesterases, β-Secretase, Cyclooxygenase-2, and Lipoxygenase-5/15” (Biomolecules, 2019).

Series [1] has as its target T1, AChE (Homo sapiens, UniProt P22303). Description: biochemical.
Series [2] addresses T2, BChE (Homo sapiens, UniProt P06276).
T2 construct: purchased Cloud-Clone Corp., through BIOCOM Africa (Pty) Ltd RPC348Hu0 2_100
Description: biochemical. Particulars: Ellman's method, triplicate.
Description: Their anti-AChE and BChE activities were determined by spectrophotometric Ellman’s method [42]. […] The mixtures were incubated for 15 min at RT. The reaction was initiated by adding 10 µL of a mixture solution of 5 mM 5,50-dithio-bis-nitrobenzoic acid (DTNB) in 50 mM tris buffer (pH 7.7) and 10 µL acetylthiocholine (ASCh) (5 mM) in 50 mM tris buffer, pH 7.7. The hydrolysis of ASCh was determined by monitoring the formation of the yellow 5-thio-2-nitrobenzoate anion resulting from reaction of DTNB with thiocholines (SCh).
The IC50 values were determined graphically from inhibition curves (inhibitor concentration and absorbance) using the graph pad prism.

Series [3] deals with T3, BACE-1 (Homo sapiens, UniProt P56817).
T3 construct: purchased Pan Vera; host or cells: baculovirus expression
T3 sequence (P56817 46-501): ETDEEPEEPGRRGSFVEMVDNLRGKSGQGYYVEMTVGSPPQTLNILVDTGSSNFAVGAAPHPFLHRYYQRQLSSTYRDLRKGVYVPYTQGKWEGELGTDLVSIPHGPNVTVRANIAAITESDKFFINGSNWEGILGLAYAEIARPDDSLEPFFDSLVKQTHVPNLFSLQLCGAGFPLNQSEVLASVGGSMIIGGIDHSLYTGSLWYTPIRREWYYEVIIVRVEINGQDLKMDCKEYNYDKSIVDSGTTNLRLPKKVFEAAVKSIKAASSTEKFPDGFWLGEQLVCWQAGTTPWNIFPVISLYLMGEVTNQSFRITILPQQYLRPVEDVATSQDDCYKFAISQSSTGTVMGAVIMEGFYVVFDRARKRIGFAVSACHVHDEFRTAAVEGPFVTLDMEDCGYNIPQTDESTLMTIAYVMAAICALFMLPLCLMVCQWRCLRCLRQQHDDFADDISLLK
Briefly: β-Secretase FRET inhibition assay. Format: biochemical. Particulars: pH 4.5, 60 min at 25 °C, triplicate.

Series [4] addresses T4, COX-2 (Homo sapiens, UniProt P35354).
T4 construct: purchased Bio Vision K547
T4 sequence (P35354 18-604): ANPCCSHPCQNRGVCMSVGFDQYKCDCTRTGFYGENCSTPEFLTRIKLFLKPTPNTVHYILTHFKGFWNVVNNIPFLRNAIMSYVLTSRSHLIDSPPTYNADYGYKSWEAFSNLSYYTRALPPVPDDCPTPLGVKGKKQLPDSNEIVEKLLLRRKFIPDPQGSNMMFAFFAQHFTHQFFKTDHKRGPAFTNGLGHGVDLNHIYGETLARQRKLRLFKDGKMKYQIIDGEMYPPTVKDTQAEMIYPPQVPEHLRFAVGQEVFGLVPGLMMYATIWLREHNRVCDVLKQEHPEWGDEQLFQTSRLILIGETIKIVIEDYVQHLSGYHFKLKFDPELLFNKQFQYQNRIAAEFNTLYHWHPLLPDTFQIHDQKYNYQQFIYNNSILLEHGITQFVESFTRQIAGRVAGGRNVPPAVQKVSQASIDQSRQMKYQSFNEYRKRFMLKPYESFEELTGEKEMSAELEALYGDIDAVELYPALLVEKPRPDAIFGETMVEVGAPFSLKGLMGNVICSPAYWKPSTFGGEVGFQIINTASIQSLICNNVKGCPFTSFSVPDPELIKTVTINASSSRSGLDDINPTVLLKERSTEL
Description: biochemical. Conditions: duplicate runs.
Description: The reagents for the COX-2 assay were prepared according to the standard protocol enclosed in the Cyclooxygenase inhibitor screening kit (Item No. K547; Bio Vision, Milpitas Blvd, Milpitas, CA USA). […] The assay mixtures in a 96-well plate were distributed as follows: two wells taken as enzyme control (10µL assay buffer) and two wells as inhibitor control (2 µL of celecoxib and 8 µL of COX assay buffer). Ten microliters of the test compounds concentrations and those of celecoxib were added to the remaining wells with the aid of a multi-channel pipette. Then, 80 µL of the reaction mix (a mixture of 76 µL COX assay buffer, 1 µL of COX probe, 2 µL of diluted COX cofactor and 1 µL of COX-2 enzyme) were added to the reaction mixture. The assay mixtures in the 96-well plate were incubated for 5 min. The reactions were initiated by the addition of 10 µL of diluted arachidonic acid and sodium hydroxide solution (10 µL of arachidonic acid and 90 µL of sodium hydroxide) to each well. The absorbance was measured using a Varioskan flash microplate spectrophotometer, and the IC50 was calculated with the aid of a graph pad prism

Series [5] has as its target T5, soybean lipoxygenases-15 (LOX-15) (Glycine max, UniProt P08170).
T5 construct: purchased Cayman Chemicals 760700
T5 sequence (P08170 1-839): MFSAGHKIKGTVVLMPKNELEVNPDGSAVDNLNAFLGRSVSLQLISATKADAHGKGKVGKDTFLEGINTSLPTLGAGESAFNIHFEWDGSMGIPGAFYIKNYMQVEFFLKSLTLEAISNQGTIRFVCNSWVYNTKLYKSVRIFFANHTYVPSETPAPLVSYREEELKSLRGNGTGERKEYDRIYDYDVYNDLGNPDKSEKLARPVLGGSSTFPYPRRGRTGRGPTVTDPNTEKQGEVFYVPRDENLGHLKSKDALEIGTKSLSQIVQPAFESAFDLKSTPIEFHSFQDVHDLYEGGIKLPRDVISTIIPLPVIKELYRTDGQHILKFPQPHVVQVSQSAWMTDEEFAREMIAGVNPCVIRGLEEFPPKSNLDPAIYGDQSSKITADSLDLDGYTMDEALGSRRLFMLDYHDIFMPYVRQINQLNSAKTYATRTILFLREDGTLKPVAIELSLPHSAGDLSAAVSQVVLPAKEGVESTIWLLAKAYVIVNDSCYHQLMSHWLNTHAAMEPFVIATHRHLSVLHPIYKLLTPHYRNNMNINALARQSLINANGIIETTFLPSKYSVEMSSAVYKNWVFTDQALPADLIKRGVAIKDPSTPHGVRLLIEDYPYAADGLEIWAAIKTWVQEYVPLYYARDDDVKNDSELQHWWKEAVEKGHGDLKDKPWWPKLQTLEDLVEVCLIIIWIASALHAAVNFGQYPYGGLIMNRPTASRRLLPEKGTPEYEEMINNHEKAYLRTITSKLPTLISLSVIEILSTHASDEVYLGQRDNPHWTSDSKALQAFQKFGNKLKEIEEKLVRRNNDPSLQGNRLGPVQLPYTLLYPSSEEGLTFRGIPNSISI
Description: Soybean LOX-15 inhibitory assay. Format: biochemical. Conditions: soybean LOX-15, duplicate runs; read-out: IC50 LOX-15.
Description: Stock solutions of the test samples prepared in DMSO were further diluted with 50 mM Tris buffer of pH 7.7 to obtain concentrations of 0.01, 0.1, 1, 10, and 100 µM. The cells of a 96-well plate where arranged as follows: two wells taken as blanks (100 µL 50mM Tris buffer pH, 7.7), two wells taken as enzyme controls (90 µL of 15-LO Standard and 10 µL of DMSO), and two as 100% initial activity wells (90 µL lipoxygenase enzyme solution and 10 µL tris buffer). Then, 90 µL of lipoxygenase enzyme solution and 10 µL of each test compound (and reference standards) from the above concentrations were added to the other wells of a 96-well plate, and the plate was incubated for 5 min at room temperature. The reaction was initiated by addition of 10 µL of the arachidonic acid to each well containing the assay mixtures. The 96-well plate was shaken for 5 min on a shaker, and 100 µL of the chromogen (solution of equal volume developing reagent 1 and 2) was added to each well to initiate the reaction. The plate was again shaken for 5 min and the absorbance read at 490 nm in a Varioskan flash microplate spectrophotometer reader. The inhibitory concentration was expressed as a percentage using the formula below. Inhibitory concentration = AInitial activity −(ASample − ABlank sample)/AInitial activity×100 where ASample is the absorbance of the reaction mixture of the test sample, ABlank sample is the absorbance of the reaction mixture containing all reagents except enzyme, and AInitial activity is the absorbance of 100% initial activity.

Series [6] has as its target T6, human LOX-5 (Homo sapiens, UniProt P09917).
T6 construct: purchased BioVision K980
T6 sequence (P09917 1-674): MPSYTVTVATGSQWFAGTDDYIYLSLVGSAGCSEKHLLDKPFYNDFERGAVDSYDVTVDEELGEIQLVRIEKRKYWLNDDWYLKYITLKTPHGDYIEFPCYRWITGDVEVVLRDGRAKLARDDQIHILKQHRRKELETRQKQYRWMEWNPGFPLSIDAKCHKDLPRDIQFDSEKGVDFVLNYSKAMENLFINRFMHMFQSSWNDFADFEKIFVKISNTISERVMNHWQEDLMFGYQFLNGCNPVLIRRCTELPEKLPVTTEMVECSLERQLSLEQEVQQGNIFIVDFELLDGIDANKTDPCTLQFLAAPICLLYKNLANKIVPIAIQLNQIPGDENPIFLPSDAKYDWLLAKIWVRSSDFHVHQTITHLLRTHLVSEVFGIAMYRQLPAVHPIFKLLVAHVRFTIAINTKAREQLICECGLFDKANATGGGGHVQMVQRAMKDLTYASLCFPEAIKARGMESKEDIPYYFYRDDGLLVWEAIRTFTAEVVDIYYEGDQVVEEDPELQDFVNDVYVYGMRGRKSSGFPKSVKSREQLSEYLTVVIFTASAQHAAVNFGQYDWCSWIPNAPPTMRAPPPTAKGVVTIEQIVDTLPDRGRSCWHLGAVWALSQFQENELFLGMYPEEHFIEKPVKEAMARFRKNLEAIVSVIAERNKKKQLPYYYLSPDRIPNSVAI
Description: Human LOX-5 inhibitory assay. The class given is biochemical. Particulars: human LOX-5, duplicate; read-out: IC50 LOX-5.
Description: The reagents were prepared according to the Lipoxygenase inhibitor screening kit (Item No. K980; BioVision, Milpitas Blvd, Milpitas, CA, USA) standard protocol. Stock solutions of the test compounds were prepared in DMSO, and further diluted with 50 mM Tris HCl buffer (pH 7.7) to obtain final concentrations of 0.01, 0.1, 1, 5, and 10 µM. […] The wells of a 96-well plate were arranged as follows: two wells were taken as blanks (40 µL of assay buffer) and two as enzyme controls (2 µL of LOX-5 Standard and 38 µL of tris buffer). Two microliters (2 µL) of the test compounds (various concentration of test compounds and reference standards, respectively) followed by 38 µL of LOX assay buffer were added to the other wells of the 96-well plate in duplicate. Then, 40 µL of the reaction mixture (prepared by mixing thoroughly 36 µL of LOX assay buffer, 2 µL of LOX probe and 2 µL of LOX-5 enzyme) was added to each well containing the test mixtures, and the wells were incubated for 10 min at RT. The DMSO concentration in each reaction well was 1% to prevent enzyme structural deformation and, therefore, reduced activity. […] The percentage inhibition (%) was calculated using the equation below.
% Inhibition = Control − Test/Control×100

Series [7] is described as follows: DPPH radical scavenging assay. Conditions: 45 min in the dark, triplicate. The protocol:
The DPPH radical scavenging activity of compounds 2a–i and 3a–i was evaluated following the literature method by Zhu et al.. The compounds were evaluated against ascorbic acid (Sigma Aldrich, Saint Louis, Missouri, USA) as a positive control. Various concentrations of the test compounds and control (0 µM to 40 µM) in DMSO were mixed with a solution of DPPH (0.20 mM) in methanol. The mixtures were incubated in the dark for 45 min and then the absorbances were recorded at 512 nm using Varioskan flash microplate spectrophotometer reader. All tests and analyses were run in triplicate and averaged. The inhibition was calculated in terms of percentage using the formula below: DPPH radical scavenged (%)=AbC − AbS/AbC×100 where AbC is absorbance of control and AbS the absorbance of the test sample.

For series [8], the target named is T1, AChE. Format: biochemical.
Description: (§1) The Lineweaver–Burk plots (plots of the inverse of velocity against the inverse of the substrate concentration) were used to ascertain the mode of inhibition of these compounds. The Dixon plots of the inverse of velocity (1/v) against the concentration of the inhibitor at each concentration of substrate were used to determine their inhibitor constants (Ki).
Series [9] addresses T2, BChE. The class given is biochemical.
Description: as §1
Series [10] deals with T3, BACE-1. Description: Kinetic study against β-secretase (Lineweaver-Burk and Dixon plots). The class given is biochemical.
Description: The Lineweaver–Burk plot (plot of the inverse of velocity (1/v) against the inverse of the substrate concentration (1/[S])) was used to ascertain the mode of inhibition of this compound.
Series [11] has as its system breast cancer MCF-7 cell line. Briefly: MTT antigrowth assay, MCF-7. Format: cell-based. Particulars: 24 h treatment, preliminary results, read-out: IC50 antigrowth effect, MCF-7. On the technique in general: Tetrazolium assays rely on reduction of a dye to a coloured formazan, in cell work by metabolically active cells.
Description: (§2) Briefly, the Hek293-T cells and MCF-7 cancer cells were seeded in a 96-well plate at a density of 20 × 10^3 cells per well, and then incubated at 37 °C in 5% CO2 to allow cell attachment. The medium was removed and replaced with fresh medium containing various concentrations of the test sample and doxorubicin hydrochloride (10, 25, 50, 100, and 200 μM) and incubated for 24 h. After treatment for 24 h, 10 μL MTT (5 mg/mL) was added to each well and the plate was further incubated for 4 h. The supernatant was removed, and 100 μL of DMSO was added to each well to dissolve the resulting formazan crystals. The absorbance was read at 570 nm using the Varioskan flash microplate spectrophotometer reader and the cell viability. The percentages of cell viability were used to determine the IC50 values.
Series [12] concerns Hek293-T cells. Briefly: MTT cytotoxicity assay, Hek293-T. Conditions: up to a concentration of 50 μM.
Description: as §2
Where [13] appears, read: Lineweaver-Burk and Dixon plots.

For orientation: IC50 means the point on the concentration scale where inhibition reaches its midpoint. By Ki is commonly meant a dissociation constant, usually derived from enzyme kinetics or from competition with a known ligand.

T1 sequence (P22303 32-614): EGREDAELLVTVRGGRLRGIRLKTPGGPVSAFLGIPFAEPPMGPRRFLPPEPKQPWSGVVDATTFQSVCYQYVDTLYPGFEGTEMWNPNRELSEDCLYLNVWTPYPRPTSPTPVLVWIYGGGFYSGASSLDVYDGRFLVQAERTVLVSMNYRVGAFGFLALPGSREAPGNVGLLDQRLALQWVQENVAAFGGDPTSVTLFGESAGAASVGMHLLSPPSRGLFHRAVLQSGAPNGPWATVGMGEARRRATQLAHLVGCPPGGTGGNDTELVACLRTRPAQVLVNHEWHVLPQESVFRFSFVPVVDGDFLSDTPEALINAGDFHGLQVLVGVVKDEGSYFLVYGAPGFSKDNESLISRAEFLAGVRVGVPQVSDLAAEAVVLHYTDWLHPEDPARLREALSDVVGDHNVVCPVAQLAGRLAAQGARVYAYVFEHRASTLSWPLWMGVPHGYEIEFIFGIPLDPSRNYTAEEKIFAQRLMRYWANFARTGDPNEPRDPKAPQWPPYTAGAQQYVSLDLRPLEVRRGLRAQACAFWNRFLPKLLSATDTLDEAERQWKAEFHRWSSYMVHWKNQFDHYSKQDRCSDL
T2 sequence (P06276 29-602): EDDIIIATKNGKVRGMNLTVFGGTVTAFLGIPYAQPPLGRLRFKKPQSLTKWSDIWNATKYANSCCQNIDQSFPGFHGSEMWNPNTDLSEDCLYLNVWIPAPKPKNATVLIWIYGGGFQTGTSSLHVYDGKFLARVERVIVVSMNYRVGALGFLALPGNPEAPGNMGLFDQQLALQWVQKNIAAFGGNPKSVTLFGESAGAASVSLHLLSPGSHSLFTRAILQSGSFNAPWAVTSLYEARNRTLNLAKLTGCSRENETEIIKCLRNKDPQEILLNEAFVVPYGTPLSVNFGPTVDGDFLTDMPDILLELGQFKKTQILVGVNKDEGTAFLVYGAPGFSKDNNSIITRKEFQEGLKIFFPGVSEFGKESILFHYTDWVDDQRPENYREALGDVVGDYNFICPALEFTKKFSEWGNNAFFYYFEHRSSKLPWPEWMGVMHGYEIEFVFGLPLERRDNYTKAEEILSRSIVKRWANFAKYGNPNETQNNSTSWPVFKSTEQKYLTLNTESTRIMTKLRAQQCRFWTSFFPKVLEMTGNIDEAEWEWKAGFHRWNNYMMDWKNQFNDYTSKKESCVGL

For the substance “2-(4-Chlorophenyl)-6-[(4-trifluoromethylphenyl)hydrazonomethyl]furo[3,2-h]chromen-5-one [Compound 3e]”, the “Selectivity index (SI)” value in [1] (SI = IC50 (AChE)/IC50 (BChE)) was determined as 0.5. The half-maximal inhibitory concentration (IC50) in series [1] (recombinant human AChE, Ellman's method, triplicate) came to 5.4 ± 0.02 µM; in [2] it was 9.9 ± 0.04 µM; in series [3], 13.6 ± 0.02 µM; in series [4] it was 10.4 ± 0.03 µM; in series [5], 14.9 ± 0.04 µM; in series [6], 28.5 ± 0.02 µM. The IC50 in series [7] amounted to 25.9 ± 0.05 µM; in series [11], 6.82 ± 0.02 µM. The Ki in series [8] (Dixon plot) stood at 1.6 ± 0.01 µM; in series [9] (Dixon plot) it was 1.92 ± 0.01 µM; in series [10] (Dixon plot, substrate 150, 300 and 450 nM), 2.5 ± 0.01 µM. Also, the “Mode of inhibition, AChE” value in series [8] (setting [13]) is “non-competitive mode of inhibition”. Further, the “Mode of inhibition, BChE” value in series [9] (setting [13]) is listed as “non-competitive mode of inhibition”. The “Mode of inhibition, BACE-1” value in series [10] (setting [13]) was “mixed mode of inhibition”. The “Toxicity in Hek293-T cells” value in series [12] is “non-toxic”.
